Holding throughout (test): NCI-60 cell line screen, 48 h
Assay [1] has as its system OVCAR-4.
Assay [2] concerns K562.
Assay [3] relates to HL-60.
Assay [4] concerns NCI-H23.
Assay [5] deals with CAKI-1.
Assay [6] relates to SK-MEL-2.
Assay [7] has as its system BT-549.
Assay [8] concerns 786-0.
The test system of assay [9] is SR.
Assay [10] relates to ACHN.
Assay [11] concerns SW-620.
The subject of assay [12] is KM12.
Assay [13] has as its system SF-268.
Assay [14] concerns HOP-62.
The test system of assay [15] is MDA-MB-435.
Assay [16] has as its system MCF7.
Assay [17] concerns NCI/ADR-RES.
The test system of assay [18] is SK-MEL-5.
Assay [19] has as its system PC-3.
For assay [20], the system named is RXF 393.

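Exposure lasted 48 hours, with cells grown in 96-well plates and compounds tested at five concentrations. GI50 is the concentration that inhibits growth by half.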 Calls of active or inactive are those of the source. Cut-off read from the data, not from the text of the source: active = GI50 up to about 1.1 µM and inactive = higher. A value given as a limit tells only on which side of the number the result lay.

In the case of `c1cncc(-c2cc(-c3cc(-c4cccnc4)[nH]n3)n[nH]2)c1`, the GI50 in [1], in assay [2], in assay [3], in assay [4], in [5] and in assay [6] was > 100 µM (inactive) each time. Besides, the GI50 in assay [7], in [8], in assay [9], in [10], in assay [11] and in [12] was > 100 µM (inactive) each time. The GI50 in assay [13], in assay [14], in assay [15], in assay [16], in assay [17] and in assay [18] was > 100 µM (inactive) in each case. Besides, the GI50 in [19] and in assay [20] was > 100 µM (inactive) each time.

Consider `CN1c2ccc(Cl)cc2C(=O)NC1c1ccc([N+](=O)[O-])s1` (stereo not given), for which the GI50 in [1] was 20.4 µM (inactive); in assay [2] it was 13.3 µM (inactive); in assay [3] it was 19.6 µM (inactive); in assay [5], 15.1 µM (inactive); in assay [6], 16.4 µM (inactive); in [7], 14.1 µM (inactive). For the same compound, the GI50 in assay [8] is 16.6 µM (inactive); in assay [9] it was 14.6 µM (inactive); in [10] it was 19.4 µM (inactive); in [11] it was 32.7 µM (inactive); in assay [12], 16.4 µM (inactive); in assay [13], 3.75 µM (inactive). The GI50 was 18.5 µM (inactive) in [14]; 16.3 µM (inactive) in [15]; 19.6 µM (inactive) in assay [16]; 15.3 µM (inactive) in [17]; 16.1 µM (inactive) in [18]; 16 µM (inactive) in assay [19]. Also, in assay [20], the GI50 was 11.6 µM (inactive).

Consider `Nc1c2ccccc2nc2c1ccc1ncccc12`, for which the GI50 was 17.9 µM (inactive) in [1]; 12.5 µM (inactive) in assay [2]; 4.32 µM (inactive) in [3]; 17.4 µM (inactive) in [4]; 25.7 µM (inactive) in assay [5]; 18.6 µM (inactive) in assay [6]. Also, the GI50 in [7] was 48.3 µM (inactive); in [8], 9.79 µM (inactive); in assay [9], 12.2 µM (inactive); in [10], 5.38 µM (inactive); in assay [11], 11.7 µM (inactive); in assay [12] it was 15.1 µM (inactive). For the same compound, the GI50 in assay [15] was 27.8 µM (inactive); in [16], 6.46 µM (inactive); in assay [17], 19.9 µM (inactive); in assay [18], 28.4 µM (inactive); in assay [19], 16.3 µM (inactive); in [20] it was 24.8 µM (inactive).

For `O=C(c1ccco1)N(C(=S)OCc1ccccn1)c1ccccc1`, the GI50 was 75.3 µM (inactive) in assay [2]; > 100 µM (inactive) in assay [3]; > 100 µM (inactive) in assay [4]; > 100 µM (inactive) in assay [5]; > 100 µM (inactive) in assay [6]; > 100 µM (inactive) in assay [7]. Besides, the GI50 in assay [8] was > 100 µM (inactive); in [9], 1.25 µM (inactive); in assay [10], 86.1 µM (inactive); in [11], > 100 µM (inactive); in assay [12], > 100 µM (inactive); in assay [13], > 100 µM (inactive). For the same compound, the GI50 in assay [14] is 16 µM (inactive); in assay [15], > 100 µM (inactive); in assay [16] it was 75.3 µM (inactive); in assay [17], 62.5 µM (inactive); in [18], 88.9 µM (inactive); in assay [19], 59.8 µM (inactive). In addition, the GI50 in [20] is 30.9 µM (inactive).

Regarding `Cc1cc2nc3[nH]nc(N)c3nc2cc1C`, the GI50 in assay [1], in assay [2], in assay [3], in assay [4], in assay [5] and in [6] was > 100 µM (inactive) in each case. In addition, the GI50 in assay [7], in assay [8], in assay [9], in assay [10], in [11] and in [12] was > 100 µM (inactive) each time. For the same compound, the GI50 is > 100 µM (inactive) in [13]; 70 µM (inactive) in assay [14]; > 100 µM (inactive) in [15]; > 100 µM (inactive) in assay [16]; > 100 µM (inactive) in assay [17]; > 100 µM (inactive) in [19]. Moreover, the GI50 in assay [20] is 32.3 µM (inactive).

For the compound `CCN(CC)CCn1nc(N)c2nc3ccccc3nc21`, the GI50 in assay [1] was > 100 µM (inactive); in assay [2], > 100 µM (inactive); in [3] it was > 100 µM (inactive); in assay [4] it was > 100 µM (inactive); in assay [5], 72.6 µM (inactive); in [6], > 100 µM (inactive). The GI50 is > 100 µM (inactive) in assay [7]; > 100 µM (inactive) in [8]; 59.8 µM (inactive) in [9]; > 100 µM (inactive) in assay [10]; 93.5 µM (inactive) in [11]; > 100 µM (inactive) in assay [12]. Moreover, the GI50 in assay [13], in assay [14], in assay [15], in assay [16], in assay [17] and in assay [19] was > 100 µM (inactive) in each case. Besides, the GI50 in assay [20] is > 100 µM (inactive).

For `Cc1cc(-c2nc3ccc(F)cc3s2)ccc1NC(=O)[C@H](C)N`, the GI50 was 10.2 µM (inactive) in assay [1]; 2.07 µM (inactive) in assay [3]; 12.9 µM (inactive) in assay [4]; 8.18 µM (inactive) in assay [5]; 12.4 µM (inactive) in assay [6]; 13.7 µM (inactive) in assay [7]. Besides, the GI50 in assay [8] was 4.66 µM (inactive); in assay [9], 2.07 µM (inactive); in [10], 9.33 µM (inactive); in assay [11], 3.83 µM (inactive); in assay [12] it was 3.97 µM (inactive); in [13] it was 10 µM (inactive). The GI50 is 8.22 µM (inactive) in [14]; 2.49 µM (inactive) in [15]; < 0.0186 µM (active) in [16]; 13.2 µM (inactive) in assay [17]; 12.9 µM (inactive) in assay [18]; 11.9 µM (inactive) in assay [19]. Further, the GI50 in assay [20] was 7.91 µM (inactive).

With `O=C(NNc1cn[nH]c(=O)n1)c1cccc2nc3ccccc3nc12`, the GI50 is 68.2 µM (inactive) in assay [1]; 47.9 µM (inactive) in assay [2]; 22.4 µM (inactive) in [3]; 45.6 µM (inactive) in assay [4]; 46.6 µM (inactive) in assay [5]; 34.9 µM (inactive) in assay [6]. The GI50 in assay [7] was > 100 µM (inactive); in assay [8] it was 45.2 µM (inactive); in [9], 10.7 µM (inactive); in assay [10], 23.3 µM (inactive); in assay [11] it was > 100 µM (inactive); in assay [12], > 100 µM (inactive). The GI50 in assay [13] was 38.7 µM (inactive); in assay [15], > 100 µM (inactive); in assay [16] it was > 100 µM (inactive); in [17], > 100 µM (inactive); in assay [18], > 100 µM (inactive); in assay [19], > 100 µM (inactive). Also, the GI50 in assay [20] was 21.7 µM (inactive).

Turning to `COc1ccccc1NC(=O)C(=O)Cc1cnc2ccccc2n1`, the GI50 in assay [1], in assay [2], in assay [3], in assay [4], in [5] and in assay [6] was > 100 µM (inactive) throughout. Besides, the GI50 in assay [7], in [8], in assay [9], in assay [10], in assay [11] and in assay [12] was > 100 µM (inactive) throughout. For the same compound, the GI50 in assay [13], in assay [15], in assay [16], in assay [17], in [18] and in assay [19] was > 100 µM (inactive) in each case. For the same compound, the GI50 in assay [20] was > 100 µM (inactive).

`CCCCCCCCCCCCCCCCC(C(=O)O)C(O)(CC(=O)O)C(=O)O` (stereo not given): the GI50 was 35.2 µM (inactive) in [2]; 14.8 µM (inactive) in [3]; 29 µM (inactive) in [4]; 21.4 µM (inactive) in assay [5]; 18.9 µM (inactive) in assay [6]; 20.3 µM (inactive) in assay [7]. Also, the GI50 in assay [8] is 35.2 µM (inactive); in assay [9] it was 24.7 µM (inactive); in [10], 40.6 µM (inactive); in assay [11] it was 20 µM (inactive); in assay [12], 21.2 µM (inactive); in assay [13], 28.6 µM (inactive). The GI50 in [14] is 17.2 µM (inactive); in assay [15], 34.8 µM (inactive); in assay [16], 34.9 µM (inactive); in assay [17] it was 57 µM (inactive); in [18], 39.1 µM (inactive); in assay [19], 19.5 µM (inactive). Moreover, the GI50 in assay [20] is 22.1 µM (inactive).

The values above are taken from ChEMBL document CHEMBL1201862, “PubChem BioAssay data set” (2004).
